# Laboratory results taken from patent US20250018019A1, “TREATMENT OF INTERFERON DRIVEN INFLAMMATION” (The Provost, Fellows, Foundation Scholars and the other …, priority 2023, published 2025).
# Where a name gives a salt, the structure may show the parent alone.
# What was measured:
# BMDMs = test: LC-MS steady-state metabolomics / fumarate levels in BMDMs; format: cell-based, mouse; conditions: LPS 4 h; for ratios of ATP/ADP, ATP/AMP, and P-creatine/creatine: BMDMs pre-treated 3 h (FHIN1 10 or 20 μM, DMF 25 μM)
# Method: All compounds used DMSO as a vehicle except for 4-hydroxy tamoxifen (EtOH), NAC (PBS), and AOAA for tracing experiments (Media). LPS was used at a concentration of 100 ng/ml for indicated timepoints (2, 3, 4, 6, 8, 24, 48 h). FHIN1 (10 or 20 μM), MMF (50 or 100 μM), DMF (25 μM), AOAA (5 mM), oligomycin (10 μM), CCCP (50 μM) NAC (1 mM), and IMT1 (10 μM) pre-treatments were performed for 3 h prior the addition of LPS. Cells were treated with valinomycin (10 nM) 15 mins before LPS stimulation. Anti-CD210 or IgG control (10 μg/ml) antibodies were added to cells 1 h prior to LPS stimulation. Recombinant mouse IL-10 protein (100 ng/ml) was added to cells at the same time as LPS. Cells were treated with IFN-B1 (220 ng/ml) for 3 h. Cells were treated with C-178 (1 μM) 1 h prior to LPS stimulation or transfection with 2′3′-cGAMP (1.5 μg/ml) for 4 hrs to achieve cGAS-STING activation. Cells were treated with ODN 2088 (1 μM) for 1 hr prior to LPS stimulation or transfection with CPG ODN 1826 (1.5 μg/ml) to achieve TLR9 activation. 3 different timepoints of 4-hydroxy tamoxifen (TAM) (600 nM or 2 μM) or EtOH treatment were performed-these are specified in the individual figure legends. For ‘48 h’ treatments EtOH/TAM was added on day 5 of 6 during the BMDM differentiation protocol. On day 6 they were plated with EtOH/TAM (left overnight) and treated the following day. For ‘72 h’ treatments EtOH/TAM was added on day […] of 6 during the BMDM differentiation protocol. On day 6 they were plated with EtOH/TAM (left overnight) and treated the following day. For ‘96 h’ treatments EtOH/TAM was added on day […] of 6 during the BMDM differentiation protocol. On day 6 they were plated with EtOH/TAM and treated 2 days later.
# BMDMs (3 independent mice) were plated at 0.5×10^6 cells/well in 12-well plates in technical triplicate per condition, treated as indicated, snap frozen and stored at −80° C. For metabolomics on cytosolic fraction, BMDMs were plated at 10×10^6 cells/10 cm dish and rapid fractionation was performed as previously reported^16. Metabolite extraction solution (MES) (methanol/acetonitrile/water, 50:30:20 v/v/v) was added (0.5 mL per 1×10^6 cells) and samples were incubated for 15 min on dry ice. The resulting suspension was transferred to ice-cold microcentrifuge tubes. Samples were agitated for 20 min at 4° C. in a thermomixer and then incubated at −20° C. for 1 h. Samples were centrifuged at maximum speed for 10 min at 4° C. The supernatant was transferred into a new tube and centrifuged again at maximum speed for 10 min at 4° C. The supernatant was transferred to autosampler vials and stored at −80° C. prior to analysis by LC-MS.
# HILIC chromatographic separation of metabolites was achieved using a Millipore Sequant ZIC-PHILIC analytical column (5 μm, 2.1×150 mm) equipped with a 2.1×20 mm guard column (both […] particle size) with a binary solvent system. Solvent A was 20 mM ammonium carbonate, 0.05% ammonium hydroxide; Solvent B was acetonitrile. The column oven and autosampler tray were held at 40° C. and 4° C., respectively. The chromatographic gradient was run at a flow rate of 0.200 mL/min as follows: 0-2 min: 80% B; 2-17 min: linear gradient from 80% B to 20% B; 17-17.1 min: linear gradient from 20% B to 80% B; 17.1-22.5 min: hold at 80% B. Samples were randomized and analysed with LC-MS in a blinded manner and the injection volume was 5 μl. Pooled samples were generated from an equal mixture of all individual samples and analysed interspersed at regular intervals within sample sequence as a quality control. Metabolites were measured with a Thermo Scientific Q Exactive Hybrid Quadrupole-Orbitrap Mass spectrometer (HRMS) coupled to a Dionex Ultimate 3000 UHPLC or with Vanquish Horizon UHPLC coupled to an Orbitrap Exploris 240 mass spectrometer (both Thermo Fisher Scientific) via a heated electrospray ionization source. […]
# human PBMCs = test: ELISA of IFN-β release from human PBMCs; format: cell-based; conditions: human PBMCs pre-treated, LPS 4 h
# Method: Human blood samples from healthy donors were collected and processed at the School of Biochemistry and Immunology in TBSI (TCD). Blood samples were obtained anonymously and written informed consent for the use of blood for research purposes has been obtained from the donors. All the procedures involving experiments on human samples have been approved by the School of Biochemistry and Immunology Research Ethics Committee (TCD). Experiments were conducted according to the TCD guide on good research practice, which follows the guidelines detailed in the National Institutes of Health Belmont Report (1978) and the Declaration of Helsinki. […] The remaining pellet of mononuclear cells was resuspended, counted, and plated at 1×10^6 cells/ml in RPMI supplemented with FCS (10%) and penicillin/streptomycin (1%). […]
# DuoSet ELISA kits for IL-1β, TNFα, IL-6, IL-10, and GDF15 were purchased from R&D Systems and were carried out according to the manufacturer's instructions with appropriately diluted cell supernatants added to each plate in duplicate or triplicate. IFN-β was determined using DuoSet ELISA kit from R&D Systems or Abcam (ab252363). […] Absorbance at 450 nm was quantified using a FLUOstar Optima plate reader. […]
SMILES,"ratios of ATP/ADP, ATP/AMP, and P-creatine/creatine (BMDMs)",LPS-induced IFN-β release (human PBMCs),GSSG/GSH ratio (BMDMs; BMDMs pre-treated 3 h),"TCA cycle metabolites including citrate, aconitate, itaconate and succinate (BMDMs; BMDMs pre-treated 3 h)",aconitate/citrate ratio (BMDMs; BMDMs pre-treated 3 h),fumarate and 2SC accumulation (BMDMs; BMDMs pre-treated 3 h),glyceraldehyde 3-phosphate (G3P)/2/3-phosphoglycerate (2/3-PG) ratio (BMDMs; BMDMs pre-treated 3 h),total glutathione (BMDMs; BMDMs pre-treated 3 h)
"COC(=O)/C=C/C(=O)OC [DMF, dimethyl fumarate]",no effect,suppressed,,,,,,
"CCOC(=O)[C@@]12CCCC=C1N(Cc1ccc(-c3ccccc3)cc1)C(=O)[C@H]2CC(=O)NC [FHIN1, Fumarate hydratase-IN-1]",reduced,boosted,unchanged,alterations,decreased,enhanced,increased,depletion
